Consider 3 molecules from EPA's ToxValDB 9.5 (doi:10.2903/j.efsa.2016.4604).

For one data set, the system named is Tagia sp. The following applies: for NOEC: chronic/long-term, duration: 8 weeks.
The next data set concerns Cyprinus carpio. The following applies: acute; duration: 96 hours; mortality.
A further data set concerns Folsomia candida. The following applies: chronic/long-term; duration: 28 days.
For a further data set, the system named is Pimephales promelas. The following applies: chronic/long-term; duration: 35 days; body weight.
The test system of a further data set is Apis mellifera. The following applies: acute, mortality.
The next data set concerns Daphnia magna. The following applies: chronic/long-term; duration: 21 days; mobility.
Another data set deals with Canidae. The following applies: chronic; duration: 1 years; oral; diet; Dog Other; histopathology: nonneoplastic.
The subject of the next data set is Colinus virginianus. The following applies: acute, oral, mortality.
The subject of another data set is Typhlodromus pyri. Description: LR50; higher = less toxic. The following applies: not reported; mortality.

Converted amounts (≈) assume the structure as drawn.

By NOAEL is commonly meant the highest dose or exposure tested at which no adverse effect was seen.

Turning to `Cc1nn(C)c(F)c1C(=O)Nc1ccccc1C(C)CC(C)(C)O` (configuration not stated), the NOEC in the data set on Tagia sp. and in the data set with Folsomia candida was 1000 mg/kg throughout. In the data set on Cyprinus carpio, this molecule yielded an LC50 above 15.7 µg/mL.

`CC(=O)c1ccccc1NC(=O)c1c(C)nn(C)c1F`: the NOEC came to 500 mg/kg in the data set on Tagia sp. and 1000 mg/kg in the data set with Folsomia candida. In the data set on Cyprinus carpio, the LC50 was above 0.799 µg/mL.

As for `Cc1nn(C)c(F)c1C(=O)Nc1ccccc1C(C)CC(C)C` (configuration not stated) [Penflufen], the NOEC in the data set on Pimephales promelas was 23.4 µg/L; in the data set on Tagia sp. it was 33 mg/kg; in the data set with Daphnia magna, 1.53 mg/L; in the data set with Folsomia candida, 231 mg/kg. Moreover, the LD50 is above 100 µg/piece in the data set on Apis mellifera (duration: 48 hours, dermal); above 105 µg/piece with Apis mellifera (oral, unspecified); above 2000 mg/kg-day with Rattus norvegicus (acute, oral, mortality); above 1700 mg/kg-day in the data set on Colinus virginianus (diet); above 4000 mg/kg-day in the data set with Colinus virginianus. The LC50 with Tagia sp. (acute, duration: 14 days, mortality) is above 1000 mg/kg; in the data set on Cyprinus carpio it was 0.103 µg/mL (≈ 0.325 µM). Moreover, the NOAEL in the data set on Canidae turned out to be 7.7 mg/kg-day; in the data set on Rattus norvegicus (acute, oral, F, clinical signs), 50 mg/kg-day; with Rattus norvegicus (chronic, duration: 2 years, oral, diet, histopathology: nonneoplastic), 4 mg/kg-day; in the data set with Rattus norvegicus (reproduction developmental, M, body weight) it was 58 mg/kg-day. Also, the LR50 with Typhlodromus pyri is above 250 g/ha.
